Experimental data as given in patent US9572788B2, “Cell permeable inhibitors of anaphase promoting complex” (President and Fellows of Harvard College, priority 2014, dated 2017).

Tests used:
APC = APC (Xenopus laevis, UniProt A0A1L8ESF3); assay: Cyclin B1-luciferase reporter degradation (luciferase assay) in mitotic Xenopus egg extract; format: biochemical; settings: mitotic Xenopus extract
Procedure: The extract was incubated at room temperature and 3 μL samples were taken at 0, 20, 40 and 60 min.

HeLa H2B-GFP cells = assay: Mitotic entry monitored by time-lapse imaging; format: cell-based, human; settings: for Average time of mitotic entry / Median time of mitotic entry: Fig 4E
hTERT-RPE1 H2B-GFP cells = assay: Live imaging of mitotic duration in hTERT-RPE1 H2B-GFP cells; format: cell-based, human
Procedure: FIG. 18A is a graph and table showing that proTAME induces a mitotic delay in hTERT-RPE1 H2B-GFP cells. Asynchronous hTERT-RPE1 H2B-GFP cells were treated with 0.06% DMSO, 6 μM proTAME or 12 μM proAAME. Cells were imaged at 12 min interval. Cumulative frequency curves of mitotic duration and cell fate distribution are shown.
The imaging plate was mounted onto a motorized stage (Prior ProScan II) on a Nikon TE2000E PFS inverted microscope fitted with an incubation chamber maintained at 37° C. and supplied with 5% CO2. A 20× Plan Apo 0.75 NA or 40× Plan Fluor 0.75 NA objective lens was used as indicated and images were collected with 2×2 binning. DIC or GFP fluorescent images were taken every 12 min (unless otherwise specified) for 36 h with a Hamamatsu ORCA cooled CCD camera and Nikon Elements Software. TIFF files of each image were exported from Elements and used to build stacks and Quicktime movies with Metamorph imaging software (Molecular Devices). For manual analysis, mitotic duration is counted as the time between the first frame of chromosome condensation and the frame of chromosome segregation (anaphase) or decondensation (mitotic exit in the presence of nocodazole) or cell death (chromosomes shrinking to a small bright dot).

RPE1-H2B-GFP cells = assay: Fluorescence live cell imaging with survival (Cox) analysis, RPE1; format: cell-based, human; settings: proTAME 6 μM; for % rate of mitotic exit: relative to DMSO control, Cox model, apcin/apcin-M 25 μM; for Median mitotic duration: apcin or apcin-M 25 μM
Procedure: RPE1-H2B-GFP or U2OS-H2B-GFP cells were plated in 24-well glass-bottom plates 18-24 hours prior to siRNA transfection using RNAiMax (Invitrogen). After treatment with compound(s), DIC and GFP images were captured at 6-minute intervals for 45 hours. Movies were manually analyzed using Nikon Elements software or Image J.
RPE1-H2B-GFP or U2OS-H2B-GFP cells were plated in 24-well glass-bottom plates (Greiner BioOne, 662892) 18-24 hours prior to siRNA transfection using RNAiMax (Invitrogen). Plates were inserted into a covered chamber supplied with humidified 5% CO2 and mounted onto a motorized microscope stage (Prior Scientific). DIC and FITC images were captured at 6 minute intervals for 45 hours using a Nikon Ti inverted fluorescence microscope fitted with a 37° C. enclosed incubation chamber and using a 20× Plan Apo 0.75 NA objective lens. A Hamamatsu ORCA cooled CCD camera collected the images with 2×2 binning using Nikon Elements software (version 3.0). Movies were manually analyzed using Nikon Elements software or ImageJ. Mitotic duration was defined as the time from nuclear envelope breakdown until anaphase, in the case of normal mitosis, or until exit from prolonged mitosis as indicated by cytoplasmic blebbing accompanied by changes in chromatin as detected by H2B-GFP.
In order to detect differences in mitotic duration among cells in the live-cell imaging screen, a stratified Cox proportional hazards model (Cox, D. R. Regression models and life tables. J Royal Statistics Soc B34, 187-220, (1972)) was fit to censored mitotic duration times (where cells that are not observed exiting mitosis or dying in mitosis are censored at the last known time in mitosis). The Cox proportional hazards model is a semiparameteric approach to modeling time-to-event data, in which covariates are assumed to have constant proportional effects over time relative to a baseline hazard function that can take any form. In this case, stratification on “person” (the individual who analyzed the movie) and “date” (the date the assay was run) allow the baseline hazard function to differ across experimental blocks, but assume a fixed effect of treatment across experimental blocks. The model is thus: hi(t|Z=j)=hj(t)exp(β1×apcini+β2×apcinMi+β3×proTAMEi+β4×proTAMEi:apcinMi+β5×proTAMEi:apcini), j=1 . . . 4 where hi(t) is the hazard function of cell i at time t, hj(t) is the baseline hazard for strata j (with 4 levels, one for each person and date combination), apcini, proTAMEi, and apcinMi are indicator variables for presence or absence of the compounds apcin, proTAME, and apcin-M, respectively in cell i, proTAMEi:apcini is an indicator variable that is 1 if both proTAME and apcin are present in cell i, and 0 otherwise, and proTAMEi:apcinMi is a similar indicator variable for proTAME+apcin-M. In this model, […] represent the effects of apcin, apcin-M, and proTAME alone, while β4 and β5 represent the additional non-additive effect of the compounds beyond what is predicted from the combination of effects of the two compounds alone. This model was fit separately to cells treated with control siRNA or Mad2 siRNA. All statistical analysis was carried out in R 3.0.0 using the functions available as part of the survival package.
In this model, the β coefficients represent the log hazard ratios for exiting mitosis between treated and untreated cells. However, for ease of interpretation the β coefficients are exponentiated to convert them to normal hazard ratios, and then multiplied by 100 to convert to percentages relative to DMSO. These hazard ratios, which are referred to as mitotic exit rate, represent the relative probability that a treated cell in mitosis at time t will exit mitosis in the next time interval compared to an untreated cell.
For ease of interpretation, the treatment effects are presented relative to DMSO for all individual compounds and compound combinations. […]

[1] = Effect on mitosis in MCF10a cells; format: cell-based; settings: similar doses
[2] = 12 μM proTAME added at 0 hr after release from thymidine block
[3] = 12 μM proTAME added at 2 hrs after release
[4] = 12 μM proTAME added at 4 hrs after release
[5] = 12 μM proTAME added at 6 hrs after release
[6] = 12 μM proTAME added at 8 hrs after release
[7] = Fig S4A, asynchronous hTERT-RPE1 cells, proAAME 12 μM, proTAME 6 μM

APC, sequence (A0A1L8ESF3 entry or part of it): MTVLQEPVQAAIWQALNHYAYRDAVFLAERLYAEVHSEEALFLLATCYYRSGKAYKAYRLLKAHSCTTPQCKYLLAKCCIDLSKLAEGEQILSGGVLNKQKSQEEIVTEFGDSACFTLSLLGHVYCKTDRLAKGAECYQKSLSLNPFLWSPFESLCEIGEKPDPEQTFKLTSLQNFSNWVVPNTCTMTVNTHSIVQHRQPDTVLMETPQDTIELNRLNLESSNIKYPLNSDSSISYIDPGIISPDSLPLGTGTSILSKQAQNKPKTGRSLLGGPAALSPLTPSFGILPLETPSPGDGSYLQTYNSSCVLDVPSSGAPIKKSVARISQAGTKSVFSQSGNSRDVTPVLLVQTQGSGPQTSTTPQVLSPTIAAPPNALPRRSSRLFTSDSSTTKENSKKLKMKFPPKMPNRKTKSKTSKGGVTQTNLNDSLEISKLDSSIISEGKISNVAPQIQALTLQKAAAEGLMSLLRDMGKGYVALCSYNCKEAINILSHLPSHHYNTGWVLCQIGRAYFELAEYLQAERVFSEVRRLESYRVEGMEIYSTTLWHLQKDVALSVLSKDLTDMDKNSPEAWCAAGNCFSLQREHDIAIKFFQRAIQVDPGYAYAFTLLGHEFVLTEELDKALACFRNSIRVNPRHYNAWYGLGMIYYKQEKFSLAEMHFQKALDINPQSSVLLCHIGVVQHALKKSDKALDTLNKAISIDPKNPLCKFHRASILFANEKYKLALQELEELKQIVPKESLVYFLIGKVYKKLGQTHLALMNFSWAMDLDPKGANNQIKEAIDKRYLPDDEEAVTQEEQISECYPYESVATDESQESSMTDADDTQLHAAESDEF
APC, sequence (Q6DFD4 entry or part of it, further chain): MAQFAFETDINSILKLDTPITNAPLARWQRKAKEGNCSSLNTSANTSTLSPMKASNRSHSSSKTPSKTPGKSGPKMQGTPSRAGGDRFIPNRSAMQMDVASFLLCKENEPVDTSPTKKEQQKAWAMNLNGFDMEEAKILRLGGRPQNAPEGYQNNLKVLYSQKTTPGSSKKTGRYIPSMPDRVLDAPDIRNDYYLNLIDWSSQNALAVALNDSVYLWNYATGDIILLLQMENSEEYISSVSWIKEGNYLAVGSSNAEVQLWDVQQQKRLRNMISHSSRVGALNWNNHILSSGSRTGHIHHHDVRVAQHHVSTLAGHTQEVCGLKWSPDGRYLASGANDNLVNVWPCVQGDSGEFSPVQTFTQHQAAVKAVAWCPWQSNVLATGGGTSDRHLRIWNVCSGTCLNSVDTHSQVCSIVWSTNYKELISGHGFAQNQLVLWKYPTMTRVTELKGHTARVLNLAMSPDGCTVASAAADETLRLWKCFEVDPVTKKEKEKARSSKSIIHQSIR

Compound: COC(=O)[C@H](CCCN/C(=N\C(=O)OCOC(=O)Cc1ccccc1)NC(=O)OCOC(=O)Cc1ccccc1)NS(=O)(=O)c1ccc(C)cc1 [proTAME]
- Inhibition of cyclin B-luciferase proteolysis (APC): efficiently inhibits cyclin B-luciferase proteolysis
- Average time of mitotic entry (HeLa H2B-GFP cells; [2]): 712.8 min
- Median time of mitotic entry (HeLa H2B-GFP cells; [2]): 696 min
- Average time of mitotic entry (HeLa H2B-GFP cells; [3]): 669.0 min
- Median time of mitotic entry (HeLa H2B-GFP cells; [3]): 660 min
- Average time of mitotic entry (HeLa H2B-GFP cells; [4]): 636.6 min
- Median time of mitotic entry (HeLa H2B-GFP cells; [4]): 624 min
- Average time of mitotic entry (HeLa H2B-GFP cells; [5]): 619.4 min
- Median time of mitotic entry (HeLa H2B-GFP cells; [5]): 612 min
- Average time of mitotic entry (HeLa H2B-GFP cells; [6]): 622.6 min
- Median time of mitotic entry (HeLa H2B-GFP cells; [6]): 612 min
- Delay in mitotic entry (HeLa H2B-GFP cells; added 6 hour or later after release): did not delay mitotic entry
- Delay in mitotic entry (HeLa H2B-GFP cells; added during release from a double thymidine block): 2 h
- Average mitotic duration (hTERT-RPE1 H2B-GFP cells; [7]): 819.0 min
- Median mitotic duration (hTERT-RPE1 H2B-GFP cells; [7]): 522 min
- Median mitotic duration (hTERT-RPE1 H2B-GFP cells; asynchronous hTERT-RPE1, 6 μM): over 8 h
- % rate of mitotic exit (RPE1-H2B-GFP cells; Mad2 siRNA): 0.22%
- Median mitotic duration (RPE1-H2B-GFP cells; Table 3, control siRNA): 120
- Median mitotic duration (RPE1-H2B-GFP cells; Table 3, mad2 siRNA): 114
- % rate of mitotic exit (RPE1-H2B-GFP cells; control siRNA): 2.32%
- Effect on mitotic duration [1]: had no effect
